Test results from ChEMBL document CHEMBL1151503, “Synthesis of novel ellipticine analogues and their inhibition of Moloney leukaemia reverse transcriptase” (Bioorg Med Chem Lett, 1996).

Legend:
Design in all cases: scale not given: the % may be the effect or the level left
[1] = test system: Moloney murine leukemia virus reverse transcriptase; assay: Compound was evaluated for inhibition of against moloney leukemia reverse transcriptase at concentration 0.04 mg/mL
[2] = test system: Moloney murine leukemia virus reverse transcriptase; assay: Compound was evaluated for inhibition of against moloney leukemia reverse transcriptase at concentration 0 mg/ml
[3] = test system: Moloney murine leukemia virus reverse transcriptase; assay: Compound was evaluated for inhibition of against moloney leukemia reverse transcriptase at concentration 0.02 mg/mL
[4] = test system: Moloney murine leukemia virus reverse transcriptase; assay: Compound was evaluated for inhibition of against moloney leukemia reverse transcriptase at concentration 0.1 mg/mL
[5] = test system: Moloney murine leukemia virus reverse transcriptase; assay: Compound was evaluated for inhibition of against moloney leukemia reverse transcriptase at concentration 0.01 mg/mL
[6] = test system: Moloney murine leukemia virus reverse transcriptase; assay: Compound was evaluated for inhibition of against moloney leukemia reverse transcriptase at concentration 0.08 mg/mL

Control [1] [%] | Control [2] [%] | Control [3] [%] | Control [4] [%] | Control [5] [%] | Control [6] [%] | SMILES
3 | 100 | 30 | 2 | 78 | 1 | Cn1c2ccc(Cl)cc2c2cc3ccccc3c[n+]21
3 | 100 | 30 | 2 | 48 | 1 | Cn1c2ccccc2c2cc3ccccc3c[n+]21
